Measurements from patent EP1792623B1, “Use of extracts and constituents of leontopodium as enhancers of cholinergic function” (Leopold-Franzens-Universität Innsbruck, priority 2005, dated 2007).
Counter-ions that a name gives are not always drawn.

Key:
[1] = test system: acetylcholinesterase; type: biochemical; details: 100 µM, after 60 min, in comparison to medium control, n=4
Experimental: Experiments are carried out applying Ellman's method in a 96-well microplate assay described by Ingkaninan et al, Journal of Chromatography A 827 (2000) p. 6173 and Rhee et al, Journal of Chromatography A 915 (2001) p. 217-223. In addition to buffer A described above, a buffer containing 0.1 M NaCl and 0.02 M MgClx2.6 H2O in buffer A is used for preparing a 3 mM solution of DTNB. For the microplate assay the substrate ATCI is dissolved 15 mM in water (HPLC grade). The enzyme stock solution is diluted with buffer A to get 0.22 U/ml. In the 96-well plates, 25 µl of 15 mM ATCl, 125 µl of 3 mM DTNB, 50 µl of buffer A, and 25 µl of sample (10 mM in MeOH, respectively DMSO (dimethylsulfoxide), diluted ten times with buffer A) are added. […] […] The absorbance of the product (2-nitrobenzoate-5-mercapto thioline) is measured at 405 nm with a Chameleon 5025 (Hidex, Finland) microplate reader 0, 15, 30, 45 and 60 minutes after adding 25 µl of 0.22 U/ml acetylcholinesterase-solution to the reaction mixture. All experiments are performed 4 times (n=4) and the data are statistically processed using the SPSS 11.5 program package. Percentage of inhibition is calculated by comparing the rates for the sample to the blank (10% MeOH, resp. DMSO, in buffer).

[2] = test system: C56BL/6N female, 3-month mice; test: Object recognition task (scopolamine-induced learning deficit); type: in vivo
Experimental: (§1) Animals: C56BL/6N female, 3-month mice, weighing 20 - 27 g, were used in the present study. The animals were housed in groups of six to ten in cages (40 (L) x 25 (W) x 15 (H) cm) placed in a room at a constant temperature (22±1 °C), 12-light/ 12-dark cycle (07:00-19:00 h), with food and water ad libitum. Experiments were conducted between 09:00 and 16:00h.
(§2) Surgery: Mice were anaesthetized with Pentobarbital sodium (60 mg/kg, i.p.) and placed in a stereotaxic frame. A guide cannula (gauge 25, o.d. 0.52 mm, i.d, 0.26 mm and 7 mm long) was stereotaxically implanted through a hole on the skull into the brain area 0.5 mm higher than the third cerebral ventricle (-0.1 mm posterior, 0.8 mm lateral to bregma, -2.2 mm ventral to the dura) (Franklin KBJ, Paxinos G (1997) The mouse brain in stereotaxic coordinates. Academic Press San Diego). Guide cannula was secured to the skull using two small screws and dental cement. The microinjector (Hamilton gauge 32, o.d. 0.24 mm and i.d. 0.11 mm, 7.5 mm long) protruded 0.5 mm from the tip of the guide cannula to reach the cerebral ventricle. Mice recovered for 5 days before any experimentation was done.
(§3) Drugs: Scopolamine hydrobromide (Sigma, St. Louis, MO, U.S.A.) was dissolved in saline. Isocomene was dissolved in vehicle solution (3 parts DMSO : 7 parts sterile water). The animals were randomly divided into experimental groups and administered a cerebral ventricle injection of saline, scopolamine, isocomene or scopolamine and isocomene in a volume µl during 1 min. The injector was left in place an extra 1 min for drug diffusion after injection. These substances and vehicle were injected 15 min prior to the test.
Experimental design and drug application: Animals were randomly divided into […] experimental groups (6-9 mice per group) as follows: vehicle; scopolamine hybrobromide 20 µg (50 nmol) in 1µl ICV, isocomene 8.16 µg (40 nmol) in 2µl ICV, and scopolamine hybrobromide 20 µg plus isocomene 2 µg ICV. All substances were injected 15 min before the test (T-maze and open field) or before the training trial T1 (object recognition test) through the 7.5 mm long injector connected with i.d. 0.28 mm polyethylene tubing to 5 µl Hamilton syringe.
Apparatus: The test apparatus consisted of a box made of Plexiglas (40 (L) x 25 (W) x 15 (H) cm), which was illuminated by a lamp above the box. In the different parts of the apparatus, the light intensity was equal at 100 lux. The objects to be discriminated were made of plastic or metal, were in the different shapes: cubes and cylinders 1.5-cm high in white or green colour; they could not be displaced by mice. In addition, these objects had no genuine significance for mice and had never been associated with a reinforcement.
Procedure: The object recognition test was performed as described elsewhere (Ennaceur A, Delacour J (1988) A new one-trial test for neurobiological studies of memory in rats. 1: Behavioural data. Behav Brain Res. 31: 47-59). On the day before testing, the animals were allowed to explore the apparatus for 10 min (without objects), while on the testing day, a session of two 10-min trials was given. During the training trial (sample trial) (T1), two identical objects were placed opposite sides 8 cm from the short walls. A mouse was placed in the middle of apparatus and was left to explore these two identical objects in 10 min. After T1, the mouse was put back in its home cage and a 24-hour inter-trial interval was given. […]

[3] = test system: C56BL/6N female, 3-month mice; test: T-maze continuous alternation task; type: in vivo
Experimental: as §1, §2, §3
Experimental design and drug application: Animals were randomly divided into three experimental groups (6-9 mice per group) as follows: vehicle; scopolamine hybrobromide 20 µg (50 nmol) in 1µl ICV, isocomene 8.16 µg (40 nmol) in 2µl ICV, and scopolamine hybrobromide 20 µg plus isocomene 2 µg ICV. […]

[4] = scopolamine 20 µg ICV alone, T2
[5] = isocomene 8.16 µg ICV in mice given scopolamine 20 µg ICV

Row | Compound | inhibition (%) [1] [%] | other results
1 | 1-acetyloxy-3-angeloyloxy-(4E,6E)-tetradeca-4,6-dien-8,10,12-triyne and the 4E,6Z isomer | 16.5 | –
2 | 15-acetoxy-modhephene | 56.4 | –
3 | C=C(CO)[C@H]1Oc2ccc(C(C)=O)cc2[C@H]1O[C@@H]1O[C@H](CO)[C@@H](O)[C@H](O)[C@H]1O (relative stereo) [1-{(2R*,3R*)-2-[1-(hydroxymethyl)vinyl]-3-(β-D-gluco-pyranosyloxy)-2,3-dihydro-1-benzofuran-5-yl}-ethanone] | -0.6 | –
4 | CC(=O)OCC1=C[C@]2(C)CCC3[C@H](C)CCC32C1C (relative stereo) [[(1R*,3aS,6R)-1,3a,6-trimethyl-1,3a,4,5,5a,6,7,8-octahydrocyclo-penta[c]pentalen-2-yl]methylacetat] | 61.8 | –
5 | C=C(C)C1COc2cc3oc(=O)ccc3c(O)c2O1 (centres unmarked) [5-hydroxy-obliquin] | 1.9 | –
6 | C=C(C)C1COc2cc3oc(=O)ccc3c(OC)c2O1 (centres unmarked) [5-methoxy-obliquin] | 3.4 | –
7 | CN1[C@@H]2C[C@@H](OC(=O)[C@H](CO)c3ccccc3)C[C@H]1[C@@H]1O[C@@H]12 [Scopolamine, Scopolamine hydrobromide] | – | discrimination index [2, 4]: zero; exploration ratio [2, 4]: ~1.0; exploration time ([2]; scopolamine 20 µg ICV alone, vs vehicle-treated control mice): no significant difference; alternation rate ([3]; scopolamine 20 µg ICV alone): pronounced decrease in alternation rate
8 | C/C=C(/C)C(=O)OC[C@H]1[C@@H](Cc2cc(OC)c(OC)c(OC)c2)CO[C@@H]1c1cc(OC)c(OC)c(OC)c1 [[(2S,3R,4R)-4-(3,4,5-trimethoxy-benzyl)-2-(3,4,5-trimethoxy-phenyl)tetrahydrofuran-3-yl]methyl-(2Z)-2-methylbut-2-en-oate] | -6.4 | –
9 | C/C=C(/C)C(=O)OC[C@H]1[C@@H](Cc2ccc(OC)c(OC)c2)CO[C@@H]1c1cc(OC)c(OC)c(OC)c1 [[(2S,3R,4R)-4-(3,4-dimethoxy-benzyl)-2-(3,4,5-trimethoxy-phenyl)tetrahydrofuran-3-yl]methyl-(2Z)-2-methylbut-2-en-oate] | 5.0 | –
10 | C/C=C(/C)C(=O)OC[C@H]1[C@@H](Cc2ccc(OC)c(OC)c2)CO[C@@H]1c1ccc(OC)c(OC)c1 [[(2S,3R,4R)-4-(3,4-dimethoxy-benzyl)-2-(3,4-dimethoxy-phenyl)tetrahydrofuran-3-yl]methyl-(2Z)-2-methylbut-2-en-oate] | 17.5 | –
11 | C=C(C)C1COc2cc3oc(=O)ccc3cc2O1 (centres unmarked) [obliquine] | 18.1 | –
12 | C[C@@H]1CC[C@@H]2C(C)(C)C[C@]3(C)CC=C[C@]123 [silphinene] | 3.2 | –
13 | CC1=C[C@@H]2[C@@H](CC1)[C@@](C)(O)CC[C@H]2C(C)C [t-Cadinol] | 10.3 | –
14 | (4a,7b,8a,9b,15a)-7,9-dihydroxy-15-{[(2Z)-2-methylbut-2-enoyl]oxy} kaur-16-en-19-oate | 53.7 | –
15 | bisabolan A | 23.3 | –
16 | bisabolan E | 56.9 | –
17 | ent-kaur-16-enic-19-acid | 35.6 | –
18 | isocomene | 39.6 | discrimination index [2, 5]: potently increased; exploration ratio [2, 5]: potently increased; alternation rate ([3]; 8.16 µg isocomene ICV alone, mean ± SEM, control mice 52 ± 2.46 %): 69.96 ± 2.42%; alternation rate [3, 5]: abolished this effect of scopolamine
19 | β -isocomene | 40.8 | –
